The subject of one experiment is A2780. Put plainly: Antiproliferation assay (Assay 7), A2780. Type of experiment: cell-based. The settings on record: CellTiter-Glo, several values per example. How it is done:
Assessment of the Anti-Proliferative Effect of Compounds in Different Cell Lines
The impact of compounds on the proliferation of different cell lines was assessed using the CellTiter-Glo® Luminescent Cell Viability reagent from Promega (G7573).
In parallel, cells were plated in a reference (day 0) plate for time zero determination.
Rim wells were excluded. The cells were incubated for 72 hours in a humidified incubator at 37° C. The day 0 plate was measured by adding 30 μL/well of CTG solution (CellTiter-Glo® Luminescent Cell Viability reagent, Promega G7573) to time zero wells in the reference plate followed by a 10 minutes incubation and luminescence reading at 0.1 ms. using the PHERAstar FS microplate reader (BMG Labtech).
After 72 hours incubation, the treated plates were measured in the same way as the day 0 plate mentioned above.

The next experiment deals with MCL-1 (Homo sapiens (Human), UniProt Q07820, K194A/K197A/R201A). The experiment in a line: Protein-compound interaction assay (SPR assay, Assay 8). The experiment is classed as binding. The settings on record: immobilized MBP-MCL-1, 25° C., geometric mean. An excerpt:
Assay 8 Protein-Compound Interaction Assay (SPR Assay)
The ability of the compounds described in this invention to bind to MCL-1 may be determined using surface plasmon resonance (SPR). This allows for the quantification of binding in terms of the equilibrium dissociation constant (KD [M]), as well as association and dissociation rate constants (kon [1/M 1/s] and koff [1/s], respectively). The measurements may be performed using Biacore® T200 or Biacore® S200 instruments (GE Healthcare).
For SPR measurements, recombinant MCL-1 (amino acids 173-321, N-terminal fused to Maltose Binding Protein (MBP) (SEQ ID 1) purchased from Beryllium (Bedford, Mass., USA)) was immobilized using standard amine coupling (Johnsson B et al, Anal Biochem. 1991 Nov. 1; 198(2):268-77). Briefly, carboxymethylated dextran biosensor chips (Series S Sensor Chip CMS, GE Healthcare) were activated with 1-ethyl-3-(3-dimethylaminopropyl)-carbodiimide hydrochloride (EDC) and N-hydroxysuccinimide (NHS) according to the supplier's instructions. MBP-MCL-1 was diluted in 1×PBS-P+ (GE Healthcare) and injected on the activated chip surface. Subsequently, a solution of 1 M ethanolamine-HCl (GE Healthcare) was injected to block unreacted groups, resulting in approximately 400-2500 response units (RU) of immobilized protein. A reference surface was generated by treatment with NHS-EDC and ethanolamine-HCl. Compounds were dissolved in 100% dimethylsulfoxide (DMSO) to a concentration of 10 mM and subsequently diluted in running buffer (1×PBS-P+ (GE Healthcare) [generated from PBS-P+ Buffer 10× (GE Healthcare): 0.2 M phosphate buffer with 27 mM KCl, 1.37 M NaCl and 0.5% Surfactant P20 (Tween 20).], 1% v/v DMSO). For SPR binding-measurements, serial dilutions of compound (eight dilution steps, typically ranging from 0.2 nM up to 1 μM) were injected over immobilized protein. […] Compounds were injected for 60 s followed by a dissociation time of up to 1000 s.
The double-referenced sensorgrams were fit to a simple reversible Langmuir 1:1 reaction mechanism as implemented in the Biacore® T200 and S200 evaluation software (T200 evaluation software version 2.0 and S200 evaluation software version 1.0, GE Healthcare).
(In SPR one partner is held on a chip, and binding of the other changes the refractive index at the surface.)

For another experiment, the target named is MCL1 protein (Homo sapiens (Human), UniProt Q07820). The experiment in a line: PIxEL: protein-protein interaction in permeabilized cells by ELISA (Assay 5). The experiment is classed as cell-based. The settings on record: permeabilized RKO cells, Biotin-BIM peptide 0.2 μM, serum free; median. How it is done: PI×EL: Protein-Protein Interaction in Permeabilized Cells by ELISA
Most MCL1 protein molecules are localized at the mitochondria outer membrane and sequester pro-apoptotic proteins through binding of their BCL2 homology domain 3 (BH3 domain). MEB buffer (150 mM mannitol, 10 mM HEPES pH 7.5, 50 mM KCl, 20 μM EDTA, 20 μM EGTA, 5 mM potassium succinate, 0.1% protease-free BSA (SIGMA) with low dose digitonin (0.002%) permeabilizes plasma membrane while leaves live mitochondria, where MCL1 maintains its native localization and conformation. Unlike biophysical assays (e.g. TR-FRET) that use truncated recombinant MCL1 protein, this assay uses full length endogenous MCL1 protein at mitochondria outer membrane. It measures the interaction between MCL1 protein and biotinylated BIM BH3 peptide. Compounds can compete with BIM BH3 peptide to bind to MCL1 protein. This serum free assay measures the affinity between MCL1 protein and compound in permeabilized cells, therefore it is not affected by serum binding and cell permeability, and can measure the intrinsic compound affinity.
On day 1, RKO colon cancer cell line cells were plated at 0.8 million cells/ml, 100 μl/well in 96-well flat bottom TC plates (Corning). MCL1 antibody (Santa Cruz sc-12756) were diluted at 200 fold (final concentration 1 μg/ml) in carbonate buffer (Thermo Fisher Scientific, pH 9.6), and 50 μl of diluted antibody was added to each well of high bind ELISA plates (SARSTEDT). Each plate was tapped to make sure liquid covering entire bottom of wells and incubate at 37° C. overnight.
On the second day, MCL1 antibody was washed from ELISA plate. 250 μl Odyssey® Blocking Buffer (PBS) (Li-Cor) was added to each well, incubated at room temperature for at least 1 hour, then washed once with 250 μl 1×PBST. Plates with RKO cells were gently washed once with 100 μl/well PBS, once with 100 μl/well MEB buffer without digitonin, then 100 μl of MEB buffer with 0.002% digitonin was gently added to each well. Compounds were added with HP Tecan compound dispenser in 3-fold dilution series, highest dose 30 μM, 10-dose per compound in quadruplicates. Biotin-BIM peptide (synthesized by 21st Century) was added with HP Tecan compound dispenser at 0.2 μM immediately after the addition of compounds. Plates were rocked for 1 hour at room temperature. Then MEB buffer was aspirated and 50 μl of CHAPS buffer (50 mM Tris-Cl, pH 7.4, 150 mM NaCl, 1% CHAPS, 1 mM EDTA, 1 mM EGTA, cOmplete protease inhibitors (Roche), PhosSTOP (Roche)) was added to each well. Plates were rocked for 1 hour at 4° C., then 45 μl cell lysate from each well were transferred to ELISA plates coated with MCL1 antibody. Plates were incubated overnight in the cold room with rocking.
On the third day, ELISA plates were washed once with 250 μl 1×PBST. Streptavidin-poly-HRP (Thermo Fisher Scientific) was diluted to 20 ng/ml in Odyssey blocking buffer plus 0.05% Triton-100, and 100 μl was added to each well of the ELISA plate. Plates were incubated at room temperature for 1 hour with rocking, then washed with 100 μL 1×PBST for 3 times. Each SuperSignal ELISA Femto Maximum Sensitivity substrate was added to a 50-ml tube and mixed, then 100 μl of mixed substrate was added to each well. Plates were shaken for 1 minute then luminescence was measured by Envision plate reader […]. Signal of each well were normalized by no-compound control and no-cell control. IC50 was calculated using Graphic Pad PRISM software.
(In general: In an ELISA, binding on a coated surface is turned into a signal by an enzyme label.)

“And” between values parts separate entries of the source, which are not always exact repeats. Equal values may be shown once. Where a name gives a salt, the structure may show the parent alone. Read-outs that look alike come from different tables or passages of the source.

Chain of MCL-1 (Q07820 whole entry K194A/K197A/R201A, looked up): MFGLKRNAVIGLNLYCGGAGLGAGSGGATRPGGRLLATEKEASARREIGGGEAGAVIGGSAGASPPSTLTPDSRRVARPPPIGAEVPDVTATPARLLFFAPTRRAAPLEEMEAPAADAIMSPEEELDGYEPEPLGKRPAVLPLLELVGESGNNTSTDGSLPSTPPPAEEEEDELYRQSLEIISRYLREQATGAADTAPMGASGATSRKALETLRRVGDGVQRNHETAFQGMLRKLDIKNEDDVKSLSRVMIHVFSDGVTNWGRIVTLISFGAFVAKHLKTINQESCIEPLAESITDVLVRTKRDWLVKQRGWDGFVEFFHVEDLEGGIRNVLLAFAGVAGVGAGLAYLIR
Chain of MCL1 protein (Q07820 whole entry, the tested form may be a part): as the sequence (Q07820 whole entry K194A/K197A/R201A, looked up) above, with A194K, A197K, A201R counted along it

Usually IC50 stands for the concentration that gives 50% inhibition. With `Cc1c2c(nn1C)CN(C)S(=O)(=O)CCCn1c(C(=O)O)c(CCCOc3cccc4ccccc34)c3ccc(Cl)c-2c31` (racemic) [Example 4, (rac)-4-Chloro-2,3,14-trimethyl-7-{3-[(naphthalen-1-yl)oxy]propyl}-13,13-dioxo-10,11,12,13,14,15-hexahydro-2H-13λ^6-pyrazolo[3′,4′:4,5][1,2,8]thiadiazacycloundecino-[6,7,8-hi]indole-8-carboxylic acid], the IC50 was 1.66e-05 M in the experiment on A2780 (72 hours, listed as 04, read-out: Antiproli A2780 [M] IC50) and 1.22e-05 M in the experiment with A2780 (Homo sapiens, A2780, 72 h, read-out: Antiproli A2780 [M] IC50).

The Kd is the free concentration of one partner at which half of the binding sites on the other are occupied at equilibrium, for simple one-to-one binding. Low values mean higher affinity, high ones lower affinity. What is called koff is the rate constant with which the complex falls apart. As a reminder, the kon is the rate constant with which the complex forms. In turn, `Cc1c2c(nn1C)CN(C)S(=O)(=O)CCCn1c(C(=O)O)c(CCCOc3cccc4ccccc34)c3ccc(Cl)c-2c31` (single isomer, unassigned; enantiomer 1) [Example 5, 4-Chloro-2,3,14-trimethyl-7-{3-[(naphthalen-1-yl)oxy]propyl}-13,13-dioxo-10,11,12,13,14,15-hexahydro-2H-13λ^6-pyrazolo[3′,4′:4,5][1,2,8]thiadiazacycloundecino[6,7,8-hi]indole-8-carboxylic acid-N-ethylethanamine salt (Enantiomer 1)] yielded a Kd on MCL-1 of 0.0024 µM. Besides, the koff at MCL-1 (read-out: koff) was 0.0079 s⁻¹. Further, on MCL-1 (read-out: kon), the kon is 3.2e+06 M⁻¹ s⁻¹. Besides, the IC50 was 9.33e-06 M and 1.13e-05 M in the experiment on A2780 (72 hours, listed as 05, read-out: Antiproli A2780 [M] IC50); 0.57 µM on MCL1 protein.

Regarding `Cc1c2c(nn1C)CN(CCN1CCOCC1)S(=O)(=O)CCCn1c(C(=O)O)c(CCCOc3cccc4ccccc34)c3cccc-2c31` (single isomer, unassigned; enantiomer 2) [Example 3, 2,3-Dimethyl-14-[2-(morpholin-4-yl)ethyl]-7-{3-[(naphthalen-1-yl)oxy]propyl}-13,13-dioxo-10,11,12,13,14,15-hexahydro-2H-13λ^6-pyrazolo[3′,4′:4,5][1,2,8]thiadiazacycloundecino-[6,7,8-hi]indole-8-carboxylic acid-N-ethylethanamine salt (Enantiomer 2)], the IC50 with A2780 (72 hours, listed as 03, read-out: Antiproli A2780 [M] IC50) was determined as 2.11e-05 M.

Take `Cc1c2c(nn1C)CN(C)S(=O)(=O)CCCn1c(C(=O)O)c(CCCOc3cccc4ccccc34)c3ccc(Cl)c-2c31` (single isomer, unassigned; enantiomer 2) [Example 6, 4-Chloro-2,3,14-trimethyl-7-{3-[(naphthalen-1-yl)oxy]propyl}-13,13-dioxo-10,11,12,13,14,15-hexahydro-2H-13λ^6-pyrazolo[3′,4′:4,5][1,2,8]thiadiazacycloundecino[6,7,8-hi]indole-8-carboxylic acid-N-ethylethanamine salt (Enantiomer 2)]: the IC50 in the experiment with A2780 (72 hours, listed as 06, read-out: Antiproli A2780 [M] IC50) worked out at 1.19e-05 M.

These data come from patent US11401278B2, “Macrocyclic indole derivatives” (The Broad Institute, Inc., priority 2017, dated 2022).
